Data from the NIST ThermoML archive (doi:10.1016/j.jct.2012.01.016).
Where “and” joins values, the source holds several entries; their conditions need not be identical. Equal entries are not always repeated.

Test: activity coefficient (dimensionless); of the first substance listed, at infinite dilution; xn = mol fraction of the nth substance listed
Settings: Liquid, Headspace solid phase microextraction, x1 = 0

SMILES	activity coefficient (298.15 K)	activity coefficient (308.15 K)	activity coefficient (318.15 K)
Cc1ccccc1C [1,2-dimethylbenzene] + O=Cc1ccco1	4.12 and 3.74	4.44 and 3.55	6.77 and 4.61
c1ccccc1 [benzene] + O=Cc1ccco1	2.61 and 2.45	2.93 and 2.4	3.87 and 2.89
C1CCCCC1 [cyclohexane] + O=Cc1ccco1	15.7 and 15.5	13.5 and 12.9	12 and 10.9
C1CCCC1 [cyclopentane] + O=Cc1ccco1	11.6 and 11.4	10.7 and 10.1	10.4 and 9.3
CCc1ccccc1 [ethylbenzene] + O=Cc1ccco1	4.84 and 4.52	5.02 and 4.35	7.21 and 5.25
CCCCCCC [heptane] + O=Cc1ccco1	32 and 31.6	30.8 and 29.6	28.3 and 26.4
CCCCCC [hexane] + O=Cc1ccco1	25.6 and 25.3	23.6 and 22.8	22.2 and 21.2
CCCCC [pentane] + O=Cc1ccco1	20.8 and 20.4	17.9 and 16.9	16.8 and 15
Cc1ccccc1 [toluene] + O=Cc1ccco1	3.72 and 3.46	3.79 and 3.33	5.3 and 3.8
